Experimental data reported in PubChem BioAssay (NCI).
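In this assay, cells in 96-well plates receive the compound at five concentrations for 48 hours. Endpoints are linearly interpolated between the surrounding concentrations. GI50: concentration for 50% inhibition of growth. TGI denotes the concentration required for complete inhibition of growth.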

How the values were obtained:
Experiment in all cases: NCI tumour cell line growth inhibition, 48 h
[1] = system: M14 melanoma
[2] = system: 786-0 renal
[3] = system: SN12C renal
[4] = system: SW-620 colon
[5] = system: SF-268 CNS
[6] = system: NCI/ADR-RES ovarian
[7] = system: A549 NSCLC
[8] = system: SK-OV-3 ovarian
[9] = system: KM12 colon
[10] = system: MCF7 breast
[11] = system: MDA-MB-231 breast
[12] = system: HS 578T breast
[13] = system: HL-60(TB) leukemia
[14] = system: PC-3 prostate
[15] = system: LOX IMVI melanoma
[16] = system: HCT-116 colon
[17] = system: COLO 205 colon
[18] = system: MDA-MB-435
[19] = system: CAKI-1 renal
[20] = system: NCI-H226 lung
[21] = system: HT29 colon
[22] = system: OVCAR-5 ovarian
[23] = system: RXF 393 renal
[24] = system: OVCAR-8 ovarian
[25] = system: SNB-75 CNS
[26] = system: HCC-2998 colon
[27] = system: A498 renal
[28] = system: SR leukemia
[29] = system: SK-MEL-5 melanoma
[30] = system: SF-295 CNS
[31] = system: OVCAR-3 ovarian
[32] = system: SK-MEL-28 melanoma
[33] = system: K-562 leukemia
[34] = system: IGROV1 ovarian
[35] = system: DU-145 prostate
[36] = system: BT-549 breast
[37] = system: CCRF-CEM leukemia
[38] = system: SK-MEL-2 melanoma
[39] = system: NCI-H23 lung
[40] = system: HOP-62 NSCLC
[41] = system: UACC-62 melanoma
[42] = system: MALME-3M melanoma
[43] = system: HCT-15 colon
[44] = system: SNB-19 CNS
[45] = system: NCI-H460 lung
[46] = system: NCI-H522 lung
[47] = system: HOP-92 NSCLC
[48] = system: SF-539 CNS
[49] = system: U251 CNS
[50] = system: RPMI-8226 leukemia
[51] = system: UO-31 renal
[52] = system: TK-10 renal
[53] = system: ACHN renal
[54] = system: MOLT-4 leukemia

SMILES: COc1cccc(NC(=O)c2sc3nc4c(cc3c2N)C(=O)CCC4)c1
- GI50 [1]: 94.3 nM
- TGI [1]: > 100 µM
- GI50 [2]: 366 nM
- TGI [2]: > 100 µM
- GI50 [3]: 461 nM
- TGI [3]: > 100 µM
- GI50 [4]: 57.1 nM
- TGI [4]: > 100 µM
- GI50 [5]: 725 nM
- TGI [5]: > 100 µM
- GI50 [6]: 102 nM
- TGI [6]: > 45.9 µM
- GI50 [7]: 103 nM
- TGI [7]: > 100 µM
- GI50 [8]: 183 nM
- TGI [8]: > 78.1 µM
- GI50 [9]: 56.9 nM
- TGI [9]: > 100 µM
- GI50 [10]: 44.3 nM
- TGI [10]: > 100 µM
- GI50 [11]: 209 nM
- TGI [11]: 7.59 µM
- GI50 [12]: 81.6 nM
- TGI [12]: > 100 µM
- GI50 [13]: 144 nM
- TGI [13]: > 100 µM
- GI50 [14]: 110 nM
- TGI [14]: > 100 µM
- GI50 [15]: 1710 nM
- TGI [15]: > 100 µM
- GI50 [16]: 74.5 nM
- TGI [16]: > 100 µM
- GI50 [17]: 83.4 nM
- TGI [17]: 2150 nM
- GI50 [18]: 22.1 nM
- TGI [18]: 54.8 nM
- GI50 [19]: 882 nM
- TGI [19]: > 100 µM
- GI50 [20]: 2180 nM
- TGI [20]: > 100 µM
- GI50 [21]: 86.6 nM
- TGI [21]: > 100 µM
- GI50 [22]: 635 nM
- TGI [22]: > 100 µM
- GI50 [23]: 84 nM
- TGI [23]: 1510 nM
- GI50 [24]: 402 nM
- TGI [24]: > 100 µM
- GI50 [25]: 57.9 nM
- TGI [25]: 12.7 µM
- GI50 [26]: 279 nM
- TGI [26]: > 100 µM
- GI50 [27]: 52.1 nM
- TGI [27]: 830 nM
- GI50 [28]: 133 nM
- TGI [28]: > 100 µM
- GI50 [29]: 64 nM
- TGI [29]: > 100 µM
- GI50 [30]: 81.8 nM
- TGI [30]: > 100 µM
- GI50 [31]: 61.2 nM
- TGI [31]: 653 nM
- GI50 [32]: 810 nM
- TGI [32]: > 100 µM
- GI50 [33]: 51.3 nM
- TGI [33]: > 100 µM
- GI50 [34]: 381 nM
- TGI [34]: > 100 µM
- GI50 [35]: 231 nM
- TGI [35]: > 100 µM
- GI50 [36]: 282 nM
- TGI [36]: > 90.5 µM
- GI50 [37]: 89.3 nM
- TGI [37]: > 100 µM
- GI50 [38]: 61.1 nM
- TGI [38]: > 100 µM
- GI50 [39]: 346 nM
- TGI [39]: > 100 µM
- GI50 [40]: 337 nM
- TGI [40]: > 100 µM
- GI50 [41]: 74.9 nM
- TGI [41]: > 100 µM
- GI50 [42]: 108 nM
- TGI [42]: > 100 µM
- GI50 [43]: 68.6 nM
- TGI [43]: > 100 µM
- GI50 [44]: 1720 nM
- TGI [44]: > 100 µM
- GI50 [45]: 95.3 nM
- TGI [45]: > 100 µM
- GI50 [46]: 49.9 nM
- TGI [46]: 2410 nM
- GI50 [47]: 48.2 nM
- TGI [47]: 26.8 µM
- GI50 [48]: 108 nM
- TGI [48]: 587 nM
- GI50 [49]: 158 nM
- TGI [49]: 10.4 µM
- GI50 [50]: 332 nM
- TGI [50]: > 100 µM
- GI50 [51]: 449 nM
- TGI [51]: > 100 µM
- GI50 [52]: > 100 µM
- TGI [52]: > 100 µM
- GI50 [53]: 568 nM
- TGI [53]: > 100 µM
- GI50 [54]: 553 nM
- TGI [54]: > 100 µM
